Assay results: US20230381142A1, “ANTILEISHMANIAL COMPOUNDS, COMPOSITIONS AND USE THEREOF” (TRUSTEES OF BOSTON UNIVERSITY, priority 2022, published 2023)
Where two headings read alike, the source gives them in different places.

Experiments:
[1] = tested on: L. donovani intracellular amastigotes infecting THP-1 macrophages; assay: GSK intramacrophage L. donovani assay (LD AMMAC, inMac; Assay Conditions C); format: cell-based; conditions: Leishmania donovani
Method: Assay Conditions C: The intramacrophage Leishmania donovani activity assay was performed as described in Antimicrob Agents Chemother (2013) 57(7):2913-22.
(§1) The intramacrophage Leishmania donovani activity assay (LD AMMAC) at GlaxoSmithKline was performed as described.
(§2) Given the literature precedents described above and the apparent narrow tolerance for R^3 substitutions observed in the primary screen compounds, a thorough and methodical assessment was undertaken of tolerated groups at the three points of diversity (R^1/R^2/R^3) for the core. At this stage of the project, all analogues were assessed using a battery of assays performed in-house at GlaxoSmithKline. For antileishmanial activity, GSK's inMac assay was utilized. This assay provides two readouts of compound potency: average number of intracellular amastigotes per infected cell (AMMAC) EC50, percentage of infected cells per well (INFCELL) EC50, as well as a toxicity output derived from the number of host cells (MAC EC50). In addition, compounds were assessed for toxicity against HepG2 cells (HEPG2 EC50). Here, AMMAC EC50 values were focused on for relative potency assessments. […] It should be noted that for all compounds assessed in this project, the measured toxicity against THP-1 macrophages either equaled or exceeded that of HepG2 hepatocytes, therefore the MAC SI is used here as the more conservative estimate of therapeutic index.

[2] = GSK inMac assay, host cell toxicity readout (LD MAC); format: cell-based, human; conditions: human
Method: as §1, §2

[3] = values marked c: THP-1 cells, read-out: L. donovani amastigotes EC50 (μM, THP-1 or B10R cells)
[4] = THP-1 cells, values marked c, read-out: L. donovani amastigotes EC50 (THP-1 cells)
[5] = footnote c, read-out: THP-1 Host Cell CC50

Row | EC50 [1, 3] | EC50 [1, 4] | Compound | CC50 ([2]; host THP-1 cells) | CC50 [2, 5]
1 | ≥ 50.1 µM | – | CC(C)Cc1n[nH]c2c1C(c1ccc(F)cc1)N(CC(C)(CO)CO)C2=O (centres unmarked) [CMLD011038] | ≥ 50.1 µM | –
2 | – | 25.1 µM | COc1ccc(OC)c(N2C(=O)c3[nH]nc(CC(C)C)c3C2c2ccc(F)cc2)c1 (centres unmarked) [CMLD011040] | – | ≥ 50.1 µM
3 | – | 2.5 µM | CC(C)Cc1n[nH]c2c1C(C1CCCCC1)N(c1ccc(C(C)(C)C)cc1)C2=O (centres unmarked) [CMLD011042] | – | ≥ 50.1 µM
4 | – | 5 µM | CC(C)Cc1n[nH]c2c1C(C1CCCCC1)N(c1ccc3c(c1)OCO3)C2=O (centres unmarked) [CMLD011043] | – | 15.8 µM
5 | 6.3 µM | – | COc1cccc(N2C(=O)c3[nH]nc(CC(C)C)c3C2C2CCCCC2)c1 (centres unmarked) [CMLD011044] | ≥ 50.1 µM | –
6 | 10 µM | – | COc1ccccc1N1C(=O)c2[nH]nc(CC(C)C)c2C1C1CCCCC1 (centres unmarked) [CMLD011045] | 25.1 µM | –
7 | – | 20 µM | COc1ccccc1N1C(=O)c2[nH]nc(CC(C)C)c2C1c1ccc(F)cc1 (centres unmarked) [CMLD011046] | – | > 50 µM
8 | 3.2 µM | – | CC(C)Cc1n[nH]c2c1C(c1ccccc1Cl)N(c1ccc(C(C)(C)C)cc1)C2=O (centres unmarked) [CMLD011047] | 7.9 µM | –
9 | 20 µM | – | COc1cc(N2C(=O)c3[nH]nc(CC(C)C)c3C2c2ccc(F)cc2)ccc1F (centres unmarked) [CMLD011073] | 15.8 µM | –
10 | – | 20 µM | COc1ccc(N2C(=O)c3[nH]nc(CC(C)C)c3C2c2nccs2)cc1 (centres unmarked) [CMLD011075] | – | > 50 µM
11 | 10 µM | – | COc1ccc(N2C(=O)c3[nH]nc(CC(C)C)c3[C@H]2c2cccc(C(F)(F)F)c2)cn1 [CMLD011076] | 15.8 µM | –
12 | 6.3 µM | – | COc1cc(N2C(=O)c3[nH]nc(CC(C)C)c3C2c2ccccc2Br)cc(OC)c1OC (centres unmarked) [CMLD011077] | 6.3 µM | –
13 | 4 µM | – | CC(C)Cc1n[nH]c2c1C(c1ccccc1Cl)N(c1ccc(F)cc1)C2=O (centres unmarked) [CMLD011078] | 20 µM | –
14 | – | 2 µM | COc1ccc(N2C(=O)c3[nH]nc(CC(C)C)c3C2c2ccc(F)cc2F)cc1 (centres unmarked) [CMLD011079] | – | 25.1 µM
15 | 10 µM | – | COC(=O)c1ccc(N2C(=O)c3[nH]nc(CC(C)C)c3C2c2cccc(C(F)(F)F)c2)cc1 (centres unmarked) [CMLD011080] | 39.8 µM | –
16 | – | 31.6 µM | CC(C)Cc1n[nH]c2c1C(c1cccc(C(F)(F)F)c1)N(c1ccc(Br)cc1)C2=O (centres unmarked) [CMLD011081] | – | 31.6 µM
17 | 6.3 µM | – | CC(C)Cc1n[nH]c2c1C(C1CCCCC1)N(c1ccc(Br)cc1)C2=O (centres unmarked) [CMLD011087] | 7.9 µM | –
18 | – | 4 µM | COc1ccc(N2C(=O)c3[nH]nc(CC(C)C)c3C2c2cccc(OC)c2)cc1 (centres unmarked) [CMLD011088] | – | 20 µM
19 | 5 µM | – | COc1ccc(N2C(=O)c3[nH]nc(CC(C)C)c3C2C2CCCCC2)cc1F (centres unmarked) [CMLD011090] | ≥ 50.1 µM | –
20 | – | 15.9 µM | Cc1ccc(CN2C(=O)c3[nH]nc(CC(C)C)c3C2c2ccc(F)cc2)o1 (centres unmarked) [CMLD011092] | – | 39.8 µM
21 | – | 20 µM | COc1ccc(N2C(=O)c3[nH]nc(-c4ccc(Cl)cc4Cl)c3C2c2ccc(F)cc2)cc1 (centres unmarked) [CMLD011093] | – | > 50 µM
22 | – | 39.8 µM | COC(=O)c1ccc(N2C(=O)c3[nH]nc(CC(C)C)c3C2C2CCCCC2)cc1 (centres unmarked) [CMLD011094] | – | > 50 µM
23 | – | 20 µM | CC(C)Cc1n[nH]c2c1C(c1ccc(F)cc1)N(c1ccccn1)C2=O (centres unmarked) [CMLD011095] | – | > 50 µM
24 | – | 4 µM | COc1ccc(N2C(=O)c3[nH]nc(CC(C)C)c3C2c2ccc(Cl)cc2)cc1 (centres unmarked) [CMLD011096] | – | 15.9 µM
25 | – | 12.6 µM | CC(C)Cc1n[nH]c2c1C(c1ccc(F)cc1)N(c1ccc(F)cc1F)C2=O (centres unmarked) [CMLD011097] | – | 39.8 µM
26 | – | 25.1 µM | CC(C)Cc1n[nH]c2c1C(c1ccc(F)cc1)N(c1cccnc1)C2=O (centres unmarked) [CMLD011098] | – | > 50 µM
27 | – | 7.9 µM | COc1ccc(N2C(=O)c3[nH]nc(CC(C)C)c3C2c2cccc(Cl)c2)cc1 (centres unmarked) [CMLD011099] | – | 39.8 µM
28 | – | 3.2 µM | COc1ccc(N2C(=O)c3[nH]nc(CC(C)C)c3C2c2ccccc2F)cc1 (centres unmarked) [CMLD011102] | – | 31.6 µM
